From patent US5367078A, “3-oxadiazolyl-1,6-naphthyridine derivatives” (Dainippon Pharmaceutical Co., Ltd., priority 1992, dated 1994)

What was measured:
[1] = tested on: pentylenetetrazole-induced clonic convulsion; experiment: Activity on pentylenetetrazole-induced clonic convulsion (anti-PTZ activity); type: in vivo, mouse (Std-ddY male); details: Mus musculus, 2 hours before pentylenetetrazole 85 mg/kg s.c., observed 30 minutes, read-out: Number of mice having antagonistic activity/number of test mice (converted); for responders at 50 mg/kg: 50 mg/kg oral; for responders at 20 mg/kg: 20 mg/kg oral; for responders at 10 mg/kg: 10 mg/kg oral; for responders at 2 mg/kg: 2 mg/kg oral
Protocol: Experiment 2 Activity on pentylenetetrazole-induced clonic convulsion (anti-PTZ activity)
The activity on pentylenetetrazole-induced clonic convulsion of the test compound was tested according to the method of E. A. Swinyard (cf. Anticonvulsant Drugs. Mercier, J., Ed., pp. 47-65, Pergamon Press, New York (1973)). In this test, petit real-type antiepileptics and most of benzodiazepine drugs show positive results.
A test compound was administered orally to Std-ddY male mice (weight; 20-25 g, five mice/group). […] When no clonic convulsion was observed, it was determined that the test compound had antagonistic activity.

benzodiazepine receptor = experiment: Benzodiazepine receptor binding assay ([^3 H]-diazepam); details: [^3 H]-diazepam 1.5 nM, rat brain crude synaptosome membrane, pH 7.4, 0° C., 20 minutes

IC50 (benzodiazepine receptor)	Structure (SMILES)	further results
9.91 nM	COc1nnc(-c2cc3c([nH]c2=O)CCN(Cc2ccccc2)C3)o1 [Example 6, 6-benzyl-3-(5-methoxy-1,3,4-oxadiazol-2-yl)-5,6,7,8-tetrahydro-1,6-naphthyridine-2(1H)-one]	responders at 50 mg/kg [1]: 100%
13.5 nM	COc1nnc(-c2cc3c([nH]c2=O)CCN(Cc2ccc(Cl)cc2)C3)o1 [Example 7]	responders at 50 mg/kg [1]: 100%
6.95 nM	COc1nnc(-c2cc3c([nH]c2=O)CCN(Cc2ccccc2Cl)C3)o1 [Example 10]	responders at 20 mg/kg [1]: 100%
–	COc1nnc(-c2cc3c([nH]c2=O)CCN(Cc2cccc(F)c2)C3)o1 [Example 13]	responders at 20 mg/kg [1]: 100%
–	COc1cccc(CN2CCc3[nH]c(=O)c(-c4nnc(OC)o4)cc3C2)c1 [Example 17]	responders at 20 mg/kg [1]: 60%
–	COc1nnc(-c2cc3c([nH]c2=O)CCN(Cc2cccc([N+](=O)[O-])c2)C3)o1 [Example 23]	responders at 10 mg/kg [1]: 80%
14.1 nM	COc1nnc(-c2cc3c([nH]c2=O)CCN(Cc2ccccc2Br)C3)o1 [Example 26]	responders at 2 mg/kg [1]: 60%
5.46 nM	COc1nnc(-c2cc3c([nH]c2=O)CCN(Cc2cccc(F)c2F)C3)o1 [Example 29]	–
2.49 nM	COc1nnc(-c2cc3c([nH]c2=O)CCN(Cc2cccc(Cl)c2F)C3)o1 [Example 32]	–
–	COc1nnc(-c2cc3c([nH]c2=O)CCN(Cc2ccccc2C(F)(F)F)C3)o1 [Example 33]	responders at 10 mg/kg [1]: 80%
–	COc1nnc(-c2cc3c([nH]c2=O)CCN(Cc2c(F)cccc2F)C3)o1 [Example 35]	responders at 2 mg/kg [1]: 100%
–	COc1nnc(-c2cc3c([nH]c2=O)CCN(Cc2c(F)ccc(F)c2F)C3)o1 [Example 36]	responders at 2 mg/kg [1]: 100%
19.3 nM	COc1nnc(-c2cc3c([nH]c2=O)CCN(Cc2cc(F)ccc2Cl)C3)o1 [Example 52]	responders at 10 mg/kg [1]: 100%
3.91 nM	O=c1[nH]c2c(cc1-c1nnc(C3CC3)o1)CN(Cc1ccccc1)CC2 [Example 55, 6-benzyl-3-(5-cyclopropyl-1,3,4-oxadiazol-2-yl)-5,6,7,8-tetrahydro-1,6-naphthyridin-2(1H)-one]	responders at 50 mg/kg [1]: 100%
35.1 nM	CC(C)c1nnc(-c2cc3c([nH]c2=O)CCN(Cc2ccccc2)C3)o1 [Example 56]	responders at 50 mg/kg [1]: 80%
14.6 nM	O=c1[nH]c2c(cc1-c1nnc(-c3ccccc3)o1)CN(Cc1ccccc1)CC2 [Example 58]	–
1.58 nM	O=c1[nH]c2c(cc1-c1nnc(-c3cccs3)o1)CN(Cc1ccccc1)CC2 [Example 60]	responders at 50 mg/kg [1]: 100%
6.25 nM	O=c1[nH]c2c(cc1-c1nnc(-c3ccccc3Cl)o1)CN(Cc1ccccc1)CC2 [Example 61]	–
13.8 nM	CCCc1nnc(-c2cc3c([nH]c2=O)CCN(Cc2ccccc2)C3)o1 [Example 62]	–
4.09 nM	O=c1[nH]c2c(cc1-c1nnc(-c3ccco3)o1)CN(Cc1ccccc1)CC2 [Example 64]	–
10.1 nM	Cc1cc(-c2nnc(-c3cc4c([nH]c3=O)CCN(Cc3ccccc3)C4)o2)no1 [Example 66]	responders at 50 mg/kg [1]: 100%
–	Cc1ccc(CN2CCc3[nH]c(=O)c(-c4nnc(C5CC5)o4)cc3C2)cc1 [Example 80]	responders at 50 mg/kg [1]: 80%
5.17 nM	Cc1cccc(CN2CCc3[nH]c(=O)c(-c4nnc(C5CC5)o4)cc3C2)c1 [Example 81]	–
8.98 nM	O=c1[nH]c2c(cc1-c1nnc(C3CC3)o1)CN(Cc1ccc(Cl)cc1)CC2 [Example 82]	–
–	O=c1[nH]c2c(cc1-c1nnc(C3CC3)o1)CN(Cc1cccc(Cl)c1)CC2 [Example 83]	responders at 50 mg/kg [1]: 100%
–	COc1ccc(CN2CCc3[nH]c(=O)c(-c4nnc(C5CC5)o4)cc3C2)cc1 [Example 85]	responders at 50 mg/kg [1]: 80%

IC50 (benzodiazepine receptor)	Structure (SMILES)	further results
7.91 nM	COc1cccc(CN2CCc3[nH]c(=O)c(-c4nnc(C5CC5)o4)cc3C2)c1 [Example 86]	–
4.62 nM	O=c1[nH]c2c(cc1-c1nnc(C3CC3)o1)CN(Cc1cccc(F)c1)CC2 [Example 88]	–
–	O=c1[nH]c2c(cc1-c1nnc(C3CC3)o1)CN(Cc1ccccc1F)CC2 [Example 89]	responders at 50 mg/kg [1]: 100%
23.1 nM	CCc1nnc(-c2cc3c([nH]c2=O)CCN(Cc2ccccc2)C3)o1 [Example 91]	responders at 50 mg/kg [1]: 100%
–	C=C(C)c1nnc(-c2cc3c([nH]c2=O)CCN(Cc2ccccc2)C3)o1 [Example 111, 6-benzyl-3-(5-isopropenyl-1,3,4-oxadazol-2-yl)-5,6,7,8-tetrahydro-1,6-naphthyridin-2(1H)-one]	responders at 50 mg/kg [1]: 100%
50.3 nM	O=c1[nH]c2c(cc1-c1nnc(C(F)(F)F)o1)CN(Cc1ccccc1)CC2 [Example 115]	–
1.29 nM	O=c1[nH]c2c(cc1-c1noc(C3CC3)n1)CN(Cc1ccccc1)CC2 [Example 119, 6-benzyl-3-(5-cyclopropyl-1,2,4-oxadiazol-3-yl)-5,6,7,8-tetrahydro-1,6-naphthyridin-2(1H)-one]	responders at 10 mg/kg [1]: 100%
62.4 nM	O=c1[nH]c2c(cc1-c1noc(-c3ccccc3)n1)CN(Cc1ccccc1)CC2 [Example 121]	–
5.96 nM	Cc1nc(-c2cc3c([nH]c2=O)CCN(Cc2ccccc2)C3)no1 [Example 122]	responders at 10 mg/kg [1]: 100%
12.5 nM	O=c1[nH]c2c(cc1-c1noc(-c3cccs3)n1)CN(Cc1ccccc1)CC2 [Example 123]	–
5.4 nM	CC(C)c1nc(-c2cc3c([nH]c2=O)CCN(Cc2ccccc2)C3)no1 [Example 124]	responders at 10 mg/kg [1]: 60%
8.63 nM	CCCc1nc(-c2cc3c([nH]c2=O)CCN(Cc2ccccc2)C3)no1 [Example 125]	–
22.8 nM	O=c1[nH]c2c(cc1-c1nc(-c3ccccc3)no1)CN(Cc1ccccc1)CC2 [Example 141, 6-benzyl-3-(3-phenyl-1,2,4-oxadiazol-5-yl)-5,6,7,8-tetrahydro-1,6-naphthyridin-2(1H)-one]	–
3.24 nM	CCc1noc(-c2cc3c([nH]c2=O)CCN(Cc2ccccc2)C3)n1 [Example 142]	responders at 10 mg/kg [1]: 80%
2.19 nM	O=c1[nH]c2c(cc1-c1nc(C3CC3)no1)CN(Cc1ccccc1)CC2 [Example 143]	responders at 10 mg/kg [1]: 60%
8.64 nM	O=c1[nH]c2c(cc1-c1nc(-c3cccs3)no1)CN(Cc1ccccc1)CC2 [Example 145]	–
9.11 nM	CC(C)c1noc(-c2cc3c([nH]c2=O)CCN(Cc2ccccc2)C3)n1 [Example 146]	–
2.5 nM	CCCc1noc(-c2cc3c([nH]c2=O)CCN(Cc2ccccc2)C3)n1 [Example 147]	–
4.9 nM	O=c1[nH]c2c(cc1-c1nc(C3CC3)no1)CN(Cc1ccccc1Cl)CC2 [Example 152]	–
3.51 nM	O=c1[nH]c2c(cc1-c1nc(C3CC3)no1)CN(Cc1cccc(Cl)c1)CC2 [Example 153]	–
11 nM	O=c1[nH]c2c(cc1-c1nc(C3CC3)no1)CN(Cc1ccc(Cl)cc1)CC2 [Example 154]	–
6.08 nM	O=c1[nH]c2c(cc1-c1nc(C3CC3)no1)CN(Cc1ccccc1Br)CC2 [Example 155]	–
6.68 nM	O=c1[nH]c2c(cc1-c1nc(C3CC3)no1)CN(Cc1cccc(Br)c1)CC2 [Example 156]	–
2.71 nM	O=c1[nH]c2c(cc1-c1nc(C3CC3)no1)CN(Cc1ccccc1F)CC2 [Example 157]	–
3.73 nM	O=c1[nH]c2c(cc1-c1nc(C3CC3)no1)CN(Cc1cccc(F)c1)CC2 [Example 158]	–
8.15 nM	Cc1ccccc1CN1CCc2[nH]c(=O)c(-c3nc(C4CC4)no3)cc2C1 [Example 159]	–

Structure (SMILES)	IC50 (benzodiazepine receptor)	further results
COc1nnc(-c2cc3c([nH]c2=O)CCN(Cc2cc(F)ccc2Br)C3)o1 [Example 38]	4.55 nM	responders at 2 mg/kg [1]: 80%
CCc1nc(-c2cc3c([nH]c2=O)CCN(Cc2ccccc2)C3)no1 [Example 120]	4.4 nM	responders at 10 mg/kg [1]: 90%
Cc1cccc(CN2CCc3[nH]c(=O)c(-c4nc(C5CC5)no4)cc3C2)c1 [Example 160]	3.75 nM	–
